What all share (format): in vivo
Data set [1] has as its system rice. Kind of data set: Phytotoxicity test for field crops (soil treatment test). More on the design: key: 0 (no harm); 9 (complete withered). The method, then: (§1) Experimental Example 4: Phytotoxicity Test for Field Crops (Soil Treatment Test)
(§2) Soil treatment was performed for sown crops and weeds in a square plastic pot having a surface area of 50 cm^2 filled with sterilized horticultural soil (pH 6.1, organic material 1.0%, clay 21%, silt 17%, sand 52%). As a fertilizer per pot, 0.5 g of horticultural mixed fertilizer (N:P:K=17:21:17) was treated by mixing with soil. Five kinds of crops such as rice, wheat, corn, soybean, and cotton were sown in each pot. One day after sowing, test compound solutions were made by diluting with the diluent (33% acetone, 0.1% Tween-20) so that the final treatment amount of the test compounds was 19˜300 g a.i./ha. The prepared test compound solutions were treated using a spray booth (SB6-016) at a treatment amount of 100 ml per 1 m^2 of treatment area. The treated crops were managed in greenhouse conditions (average temperature 30±5° C., light/dark=14/10 hours). External symptoms and phytotoxicity were visually investigated 10 and 20 days after treatment. In the evaluation of the phytotoxicity for the crop, the grade of 0 (no harm) to 9 (complete withered) was used. The results of Table 10 were obtained by evaluating phytotoxicity value to the untreated control.

Data set [2] relates to corn. The data set is described as above. More on the design: key: 0 (no harm); 9 (complete withered). Here is the method: as §1, §2
For data set [3], the system named is cotton. The data set is described as above. Also noted: key: 0 (no harm); 9 (complete withered). Here is the method: as §1, §2
In data set [4] the test system is soybean. Described as above. Also noted: key: 0 (no harm); 9 (complete withered). Here is the method:
as §1, §2

Data set [5] deals with wheat. Described as above. More on the design: key: 0 (no harm); 9 (complete withered). Here is the method: as §1, §2
For data set [6], the system named is indian jointvetch. Kind of data set: Herbicidal activity test against upland field weeds (foliar treatment test). The note with it: 50 g ai/ha, scale 0-100. The essentials: (§3)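 Weeds were raised from seed or rootstocks in horticultural soil in a greenhouse (30±5° C., 14/10 h light/dark), then foliage was hand-sprayed with compound at 50 or 75 g a.i./ha in 50% acetone with 0.1% Tween-20. Control was scored visually 0–100 against untreated plants after 14 days, or 21 if needed.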

Data set [7] has as its system velvetleaf. The description is as above. The note with it: Abutilon theophrasti, 50 g ai/ha, scale 0-100, read-out: Foliar treatment herbicidal activity, velvet leaf. An outline of the steps:
as §3

The test system of data set [8] is crabgrass. The data set is described as above. The note with it: Digitaria sanguinalis, 50 g ai/ha, scale 0-100. The essentials: as §3
Data set [9] has as its system sorghum. Described as above. The note with it: Sorghum, 50 g ai/ha, scale 0-100. An outline of the steps:
as §3

Where [10] appears, read: 50 g ai/ha, Rice (10 days after treatment).
[11] abbreviates: 50 g ai/ha, Rice (20 days after treatment).
Where [12] appears, read: 100 g ai/ha, Rice (10 days after treatment).
Where [13] appears, read: 100 g ai/ha, Rice (20 days after treatment).
[14] abbreviates: 50 g ai/ha, Corn (10 days after treatment).
[15] abbreviates: 50 g ai/ha, Corn (20 days after treatment).
Setting [16] is: 100 g ai/ha, Corn (10 days after treatment).
The mark [17] stands for this setting: 100 g ai/ha, Corn (20 days after treatment).
Setting [18] is: 50 g ai/ha, Cotton (10 days after treatment).
Where [19] appears, read: 50 g ai/ha, Cotton (20 days after treatment).
Where [20] appears, read: 100 g ai/ha, Cotton (10 days after treatment).
[21] abbreviates: 100 g ai/ha, Cotton (20 days after treatment).
Setting [22] is: 50 g ai/ha, Soybean (10 days after treatment).
The mark [23] stands for this setting: 50 g ai/ha, Soybean (20 days after treatment).
The mark [24] stands for this setting: 100 g ai/ha, Soybean (10 days after treatment).
Where [25] appears, read: 100 g ai/ha, Soybean (20 days after treatment).
The mark [26] stands for this setting: 50 g ai/ha, Wheat (10 days after treatment).
Setting [27] is: 50 g ai/ha, Wheat (20 days after treatment).
Where [28] appears, read: 100 g ai/ha, Wheat (10 days after treatment).
Where [29] appears, read: 100 g ai/ha, Wheat (20 days after treatment).

This note sets out measurements from patent US12495798B2, “Nicotinamide compound and herbicidal composition comprising compound” (KOREA RESEARCH INSTITUTE OF CHEMICAL TECHNOLOGY, priority 2019, dated 2025).

In the case of `CON(Cc1nnn(C)n1)Cc1nc(C(F)(F)F)ccc1C(=O)Nc1nnnn1C` [Compound No. 2-97, 2-((methoxy((2-methyl-2H-tetrazol-5-yl)methyl)amino)methyl)-N-(1-methyl-1H-tetrazol-5-yl)-6-(trifluoromethyl)nicotinamide], the “Soil treatment phytotoxicity, Rice” value in data set [1] (setting [10]) is on record as 7; in data set [1] (setting [11]) it was 9; in [1] (setting [12]), 9; in data set [1] (setting [13]), 9. The “Soil treatment phytotoxicity, Corn” value amounted to 0 in data set [2] (setting [14]), 0 in data set [2] (setting [15]), 1 in [2] (setting [16]) and 0 in [2] (setting [17]). For the same compound, the “Soil treatment phytotoxicity, Cotton” value in [3] (setting [18]) is recorded as 1; in data set [3] (setting [19]), 7; in data set [3] (setting [20]) it was 4; in [3] (setting [21]), 8. The “Soil treatment phytotoxicity, Soybean” value in [4] (setting [22]), in data set [4] (setting [23]), in data set [4] (setting [24]) and in data set [4] (setting [25]) was 0 each time. Also, the “Soil treatment phytotoxicity, Wheat” value in data set [5] (setting [26]), in data set [5] (setting [27]) and in [5] (setting [28]) was 0 throughout. For the same compound, the pest or weed control at 50 g/ha in data set [6], in data set [7] and in [8] was 95% in each case. Further, the plant injury at 50 g/ha in data set [9] was found to be 50%.

As to `Cn1nnc(CSCc2nc(C(F)(F)F)ccc2C(=O)N(c2nnnn2C)S(C)(=O)=O)n1` [Compound No. 2-110, N-(1-methyl-1H-tetrazol-5-yl)-2-((((2-methyl-2H-tetrazol-5-yl)methyl)thio)methyl)-N-(methylsulfonyl)-6-(trifluoromethyl)nicotinamide], the “Soil treatment phytotoxicity, Rice” value in [1] (setting [10]), in data set [1] (setting [11]), in data set [1] (setting [12]) and in [1] (setting [13]) was 0 in each case. The “Soil treatment phytotoxicity, Corn” value in [2] (setting [14]), in data set [2] (setting [15]), in data set [2] (setting [16]) and in [2] (setting [17]) was 0 throughout. In addition, the “Soil treatment phytotoxicity, Cotton” value in data set [3] (setting [18]), in data set [3] (setting [19]), in data set [3] (setting [20]) and in data set [3] (setting [21]) was 0 in each case. Also, the “Soil treatment phytotoxicity, Soybean” value in [4] (setting [23]) and in data set [4] (setting [25]) was 0 in each case. Moreover, the “Soil treatment phytotoxicity, Wheat” value in data set [5] (setting [26]), in [5] (setting [27]), in data set [5] (setting [28]) and in data set [5] (setting [29]) was 0 each time. The pest or weed control at 50 g/ha in data set [6] was found to be 95%; in [7], 80%; in [8], 70%. The same compound returned a plant injury at 50 g/ha in data set [9] of 20%.

For the compound `Cn1nc(COCc2nc(C(F)(F)F)ccc2C(=O)Nc2nnnn2C)nc1C#N` [Compound No. 2-134, 2-(((5-cyano-1-methyl-1H-1,2,4-triazol-3-yl)methoxy)methyl)-N-(1-methyl-1H-tetrazol-5-yl)-6-(trifluoromethyl)nicotinamide], the “Soil treatment phytotoxicity, Rice” value in data set [1] (setting [10]) amounted to 1; in data set [1] (setting [11]), 1; in [1] (setting [12]), 5; in [1] (setting [13]), 4. Further, the “Soil treatment phytotoxicity, Corn” value in data set [2] (setting [14]), in [2] (setting [15]), in data set [2] (setting [16]) and in [2] (setting [17]) was 0 throughout. In addition, the “Soil treatment phytotoxicity, Cotton” value in data set [3] (setting [18]) is 0; in data set [3] (setting [19]), 1; in data set [3] (setting [20]) it was 0; in [3] (setting [21]) it was 2. Besides, the “Soil treatment phytotoxicity, Soybean” value in [4] (setting [22]), in data set [4] (setting [23]), in data set [4] (setting [24]) and in [4] (setting [25]) was 0 each time. In addition, the “Soil treatment phytotoxicity, Wheat” value in data set [5] (setting [26]), in data set [5] (setting [27]), in data set [5] (setting [28]) and in data set [5] (setting [29]) was 0 throughout. The pest or weed control at 50 g/ha in [6] was 70%; in data set [7] it was 60%; in data set [8] it was 80%. This compound had a plant injury at 50 g/ha in data set [9] of 10%.

`Cn1nc(COCc2nc(C(F)(F)F)ccc2C(=O)Nc2nnnn2C)nc1Br` [Compound No. 2-136, 2-(((5-bromo-1-methyl-1H-1,2,4-triazol-3-yl)methoxy)methyl)-N-(1-methyl-1H-tetrazol-5-yl)-6-(trifluoromethyl)nicotinamide]: the “Soil treatment phytotoxicity, Rice” value in data set [1] (setting [10]) stood at 3; in data set [1] (setting [11]) it was 4; in data set [1] (setting [12]), 4; in [1] (setting [13]), 7. Also, the “Soil treatment phytotoxicity, Corn” value in data set [2] (setting [14]), in [2] (setting [15]), in data set [2] (setting [16]) and in data set [2] (setting [17]) was 0 in each case. For the same compound, the “Soil treatment phytotoxicity, Cotton” value in data set [3] (setting [18]) stood at 0; in data set [3] (setting [19]) it was 0; in data set [3] (setting [20]), 1; in [3] (setting [21]), 0. Moreover, the “Soil treatment phytotoxicity, Soybean” value in data set [4] (setting [22]) and in data set [4] (setting [23]) was 0 each time. Besides, the “Soil treatment phytotoxicity, Wheat” value in data set [5] (setting [26]), in data set [5] (setting [27]), in data set [5] (setting [28]) and in data set [5] (setting [29]) was 0 each time. Also, the pest or weed control at 50 g/ha is 20% in [6], 40% in [7] and 60% in data set [8]. This compound returned a plant injury at 50 g/ha in [9] of 20%.

For orientation: plant injury means how far the test organism was held down.
